Measured values: paper doi:10.1101/2022.12.19.520966v1 (biorxiv, 2022)
Substitutions are numbered along the chain they refer to.

What was measured:
Test in all cases: HTRF IP1 accumulation
Assay type in all cases: cell-based
[1] = biological target: T1, T1R2/T1R3 (human sweet taste receptor) (Homo sapiens, UniProt Q7RTX0+Q8TE23); details: agonist; Galpha16gus44 co-transfected; 0.05 M LiCl, 5 min exposure; unreliable
T1 sequence (Q8TE23 20-839): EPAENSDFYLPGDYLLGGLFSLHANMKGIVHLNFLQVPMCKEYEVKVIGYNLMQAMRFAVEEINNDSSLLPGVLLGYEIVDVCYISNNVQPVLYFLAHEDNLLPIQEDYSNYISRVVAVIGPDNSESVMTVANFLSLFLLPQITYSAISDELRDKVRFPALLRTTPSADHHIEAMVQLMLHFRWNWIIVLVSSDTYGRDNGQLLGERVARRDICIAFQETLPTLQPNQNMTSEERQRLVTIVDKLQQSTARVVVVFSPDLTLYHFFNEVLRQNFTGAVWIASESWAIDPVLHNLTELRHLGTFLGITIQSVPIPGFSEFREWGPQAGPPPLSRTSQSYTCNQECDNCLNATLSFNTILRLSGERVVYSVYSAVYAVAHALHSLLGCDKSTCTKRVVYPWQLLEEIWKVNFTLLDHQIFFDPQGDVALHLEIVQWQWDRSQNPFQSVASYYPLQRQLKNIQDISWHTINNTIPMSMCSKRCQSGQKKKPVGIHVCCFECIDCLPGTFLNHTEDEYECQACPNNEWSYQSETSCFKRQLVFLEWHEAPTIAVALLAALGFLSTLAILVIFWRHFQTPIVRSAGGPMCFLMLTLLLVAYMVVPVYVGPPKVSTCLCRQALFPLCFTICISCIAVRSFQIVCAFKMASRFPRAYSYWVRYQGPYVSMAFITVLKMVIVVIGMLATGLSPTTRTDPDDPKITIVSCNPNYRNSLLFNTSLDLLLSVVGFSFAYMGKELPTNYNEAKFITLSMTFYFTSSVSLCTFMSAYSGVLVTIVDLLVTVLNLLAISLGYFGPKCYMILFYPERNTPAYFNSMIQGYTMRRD
T1 sequence (Q7RTX0 21-852): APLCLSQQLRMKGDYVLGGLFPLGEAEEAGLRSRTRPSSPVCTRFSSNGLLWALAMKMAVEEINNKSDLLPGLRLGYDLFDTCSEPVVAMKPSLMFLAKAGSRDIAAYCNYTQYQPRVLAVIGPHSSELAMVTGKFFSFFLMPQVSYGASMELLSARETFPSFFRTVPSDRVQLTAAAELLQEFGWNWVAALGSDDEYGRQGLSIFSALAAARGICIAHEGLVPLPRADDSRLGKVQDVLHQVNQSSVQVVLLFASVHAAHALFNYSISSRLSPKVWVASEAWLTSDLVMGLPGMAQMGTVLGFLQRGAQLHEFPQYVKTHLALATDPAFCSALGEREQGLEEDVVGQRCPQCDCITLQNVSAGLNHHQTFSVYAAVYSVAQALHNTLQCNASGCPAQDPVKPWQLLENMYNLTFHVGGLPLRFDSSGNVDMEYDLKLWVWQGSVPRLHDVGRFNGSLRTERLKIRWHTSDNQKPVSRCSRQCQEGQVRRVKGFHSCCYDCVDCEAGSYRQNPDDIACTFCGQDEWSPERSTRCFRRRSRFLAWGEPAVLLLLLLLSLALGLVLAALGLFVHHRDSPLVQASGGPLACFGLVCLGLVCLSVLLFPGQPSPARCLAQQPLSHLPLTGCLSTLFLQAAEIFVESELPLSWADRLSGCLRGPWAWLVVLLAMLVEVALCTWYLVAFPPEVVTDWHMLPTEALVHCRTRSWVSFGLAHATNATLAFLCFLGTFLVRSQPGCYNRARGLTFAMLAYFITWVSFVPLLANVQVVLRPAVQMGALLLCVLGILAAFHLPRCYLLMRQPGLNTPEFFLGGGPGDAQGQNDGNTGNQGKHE

[2] = biological target: T1, T1R2/T1R3 (human sweet taste receptor); details: agonist; Galpha16gus44 co-transfected; 0.05 M LiCl, 5 min exposure
[3] = biological target: T2, T1R2/T1R3 (human sweet taste receptor) (Homo sapiens, UniProt Q7RTX0+Q8TE23, Q8TE23:R317G/Q8TE23:I486V); details: agonist; Galpha16gus44 co-transfected; 0.05 M LiCl, 5 min exposure
T2 sequence (Q8TE23 20-839 R317G/I486V): T1 sequence (Q8TE23 20-839) with R298G, I467V
T2 sequence (Q7RTX0 21-852): T1 sequence (Q7RTX0 21-852)

Emax [1] | EC50 [2] | EC50 [3] | Compound
100% |  |  | OC[C@H]1OC(O)[C@H](O)[C@@H](O)[C@@H]1O (stereo partly drawn) [D-glucose]
 | 2 mM | ~15 mM | OC[C@@H]1OC(O)[C@@H](O)[C@H](O)[C@H]1O (stereo partly drawn) [L-glucose]
